Where only a bound is given, the exact number is not on record here.

Two compounds from BindingDB's records for doi:10.1021/jm00160a020 (1986) can be followed below.

The target in this test is Platelet-activating factor receptor (Oryctolagus cuniculus). Description: Inhibition of PAF receptor binding to rabbit platelet plasma membranes.

As for `COc1ccc([C@H]2CC[C@H](c3ccc(OC)c(OC)c3)O2)cc1OC`, the IC50 is 0.5 µM. Then `COc1ccc(C2CC[C@H](c3ccc(OC)c(OC)c3)O2)cc1OC` (some centres not stated), with over 3 µM.

As usually defined, the IC50 is the concentration at which inhibition is half-maximal. A lower IC50 goes with higher potency.
